Source: patent US10927105B1 (Lundbeck La Jolla Research Center, Inc., priority 2017, dated 2021)

Molecular target: MAGL (Homo sapiens (Human), UniProt Q99685)
Test: In vitro competitive activity-based protein profiling (human prefrontal cortex membrane fractions, FP-Rh probe), MAGL band
Settings: read-out: MAGL IC50 (μM) (human); human prefrontal cortex membrane fractions

Sequence of MAGL (Q99685 whole entry): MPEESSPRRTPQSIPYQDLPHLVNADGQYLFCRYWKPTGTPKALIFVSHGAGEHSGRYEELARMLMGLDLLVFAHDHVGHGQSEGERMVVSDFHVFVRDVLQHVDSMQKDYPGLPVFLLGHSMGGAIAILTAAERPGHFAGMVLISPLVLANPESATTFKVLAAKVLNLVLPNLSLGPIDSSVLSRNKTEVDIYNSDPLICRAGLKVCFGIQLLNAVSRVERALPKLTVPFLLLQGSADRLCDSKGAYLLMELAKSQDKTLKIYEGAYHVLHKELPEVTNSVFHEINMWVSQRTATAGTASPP

Structure (SMILES)	IC50 [µM]
Cc1cc(-c2ccccc2)ccc1CN1CCN(C(=O)n2ccc(C(=O)O)n2)CC1 [Example 16, 1-(4-((3-Methyl-[1,1′-biphenyl]-4-yl)methyl)piperazine-1-carbonyl)-1H-pyrazole-3-carboxylic acid]	< 0.1
O=C(O)c1ccn(C(=O)N2CCN(Cc3cc(Cl)cc(Oc4ccc(Cl)cc4)c3)CC2)n1 [Example 19, 1-(4-(3-Chloro-5-(4-chlorophenoxy)benzyl)piperazine-1-carbonyl)-1H-pyrazole-3-carboxylic Acid]	< 0.1
O=C(O)c1nn(C(=O)N2CCC3(CCN(Cc4cccc(Cl)c4C(F)(F)F)C3)CC2)cc1Cl [Example 26, 4-Chloro-1-(2-(3-chloro-2-(trifluoromethyl)benzyl)-2,8-diazaspiro[4.5]decane-8-carbonyl)-1H-pyrazole-3-carboxylic Acid]	< 0.1
O=C(O)c1ccn(C(=O)N2CCC3(CCN(Cc4cc(Cl)ccc4C(F)(F)F)C3)CC2)n1 [Example 43, 1-(2-(5-chloro-2-(trifluoromethyl)-benzyl)-2,8-diazaspiro[4.5]-decane-8-carbonyl)-1H-pyrazole-3-carboxylic acid]	< 0.1
CN(Cc1cc(Cl)ccc1C(F)(F)F)CC1CCN(C(=O)n2cc(Cl)c(C(=O)O)n2)CC1 [Example 54, 4-chloro-1-(4-(((5-chloro-2-(trifluoromethyl)-benzyl)(methyl)-amino)-methyl)piperidine-1-carbonyl)-1H-pyrazole-3-carboxylic acid]	< 0.1
O=C(O)c1ccn(C(=O)N2CCN(Cc3cccc(Oc4cc(C(F)(F)F)ccn4)c3)CC2)n1 [Example 57, 1-(4-(3-((4-(trifluoromethyl)-pyridin-2-yl)oxy)benzyl)-piperazine-1-carbonyl)-1H-pyrazole-3-carboxylic acid]	< 0.1
O=C(O)c1ccn(C(=O)N2CCN(Cc3cccc(Oc4ccc(C(F)(F)F)cn4)c3)CC2)n1 [Example 61, 1-(4-(3-((5-(trifluoromethyl)-pyridin-2-yl)oxy)benzyl)-piperazine-1-carbonyl)-1H-pyrazole-3-carboxylic acid]	< 0.1
O=C(O)c1ccn(C(=O)N2CCC3(CCN(Cc4cc(Cl)cc(C(F)(F)F)c4)C3)CC2)n1 [Example 72, 1-(2-(3-chloro-5-(trifluoromethyl)-benzyl)-2,8-diazaspiro[4.5]-decane-8-carbonyl)-1H-pyrazole-3-carboxylic acid]	< 0.1
CN(Cc1cc(Cl)ccc1C(F)(F)F)C1CCN(C(=O)n2ccc(C(=O)O)n2)CC1 [Example 81, 1-(4-((5-chloro-2-(trifluoromethyl)-benzyl)-(methyl)amino)-piperidine-1-carbonyl)-1H-pyrazole-3-carboxylic acid]	< 0.1
O=C(O)c1ccn(C(=O)N2CCN(Cc3cccc(Oc4cccc(Cl)c4)c3)CC2)n1 [Example 84, 1-(4-(3-(3-chlorophenoxy)-benzyl)-piperazine-1-carbonyl)-1H-pyrazole-3-carboxylic acid]	< 0.1
O=C(O)c1ccn(C(=O)N2CCN(Cc3cccc(Oc4ccccc4Cl)c3)CC2)n1 [Example 85, 1-(4-(3-(2-chlorophenoxy)-benzyl)piperazine-1-carbonyl)-1H-pyrazole-3-carboxylic acid]	< 0.1
Cc1cc(-c2ccccc2)ccc1CN1CCN(C(=O)n2ccc(C(=O)O)n2)C(C)C1 (stereo not shown) [Example 89, 1-(2-methyl-4-((3-methyl-[1,1′-biphenyl]-4-yl)methyl)-piperazine-1-carbonyl)-1H-pyrazole-3-carboxylic acid]	< 0.1
O=C(O)c1ccn(C(=O)N2CCC3(CCCN3Cc3ccc(C(F)(F)F)cc3N3CCCC3)CC2)n1 [Example 93, 1-(1-(2-(pyrrolidin-1-yl)-4-(trifluoromethyl)-benzyl)-1,8-diazaspiro[4.5]-decane-8-carbonyl)-1H-pyrazole-3-carboxylic acid]	< 0.1
O=C(O)c1ccn(C(=O)N2CCN(Cc3cccc(Oc4ccc(Cl)cc4)c3)CC2)n1 [Example 98, 1-(4-(3-(4-chlorophenoxy)-benzyl)-piperazine-1-carbonyl)-1H-pyrazole-3-carboxylic acid]	< 0.1
CN(Cc1cc(Cl)ccc1C(F)(F)F)C1CCN(C(=O)n2cc(Cl)c(C(=O)O)n2)CC1 [Example 112, 4-chloro-1-(4-((5-chloro-2-(trifluoromethyl)-benzyl)-(methyl)amino)-piperidine-1-carbonyl)-1H-pyrazole-3-carboxylic acid]	< 0.1
O=C(O)c1ccn(C(=O)N2CC3CN(Cc4cc(Cl)cc(C(F)(F)F)c4)CC3C2)n1 (stereo not shown) [Example 124, 1-(5-(3-chloro-5-(trifluoromethyl)-benzyl)-octahydropyrrolo-[3,4-c]pyrrole-2-carbonyl)-1H-pyrazole-3-carboxylic acid]	< 0.1

Results, then the compound that gave them:

IC50 [µM]	Structure (SMILES)
< 0.1	O=C(O)c1ccn(C(=O)N2CCN(Cc3ccc(C(F)(F)F)cc3N3CCOCC3)CC2)n1 [Example 3, 1-(4-(2-Morpholino-4-(trifluoromethyl)benzyl)piperazine-1-carbonyl)-1H-pyrazole-3-carboxylic Acid]
< 0.1	NC(=O)c1ccn(C(=O)N2CCC3(CCCN3Cc3cc4ccc(C(F)(F)F)cc4s3)CC2)n1 [Example 22, 1-(1-((6-(Trifluoromethyl)benzo[b]thiophen-2-yl)methyl)-1,8-diazaspiro[4.5]decane-8-carbonyl)-1H-pyrazole-3-carboxamide]
< 0.1	O=C(O)c1ccn(C(=O)N2CCC(OCc3cc(Cl)cc(Oc4ccc(Cl)cc4)c3)CC2)n1 [Example 27, 1-(4-((3-Chloro-5-(4-chlorophenoxy)benzyl)oxy)piperidine-1-carbonyl)-1H-pyrazole-3-carboxylic Acid]
< 0.1	O=C(O)c1ccn(C(=O)N2CCC3(CCCN3Cc3cc(-n4cccn4)cc(C(F)(F)F)c3)CC2)n1 [Example 32, 1-(1-(3-(1H-pyrazol-1-yl)-5-(Trifluoromethyl)benzyl)-1,8-diazaspiro[4.5]decane-8-carbonyl)-1H-pyrazole-3-carboxylic Acid]
< 0.1	O=C(O)c1ccn(C(=O)N2C[C@H]3C[C@H](OCc4cccc(C5CCCC5)c4)C[C@H]3C2)n1 [Example 34, 1-(trans-5-((3-Cyclopentylbenzyl)oxy)octahydrocyclopenta[c]pyrrole-2-carbonyl)-1H-pyrazole-3-carboxylic Acid]
< 0.1	NC(=O)c1ccn(C(=O)N2CC3CN(Cc4ccc(C5(C(=O)O)CCOCC5)cc4C(F)(F)F)CC3C2)n1 (stereo not shown) [Example 35, 4-(4-((5-(3-carbamoyl-1H-pyrazole-1-carbonyl)hexahydropyrrolo[3,4-c]pyrrol-2(1H)-yl)methyl)-3-(trifluoromethyl)phenyl)tetrahydro-2H-pyran-4-carboxylic acid]
< 0.1	CC(C)(O)CN(Cc1cccc(C(F)(F)F)c1)C1CCN(C(=O)n2ccc(C(N)=O)n2)CC1 [Example 36, 1-(4-((2-Hydroxy-2-methylpropyl)(3-(trifluoromethyl)benzyl)amino)piperidine-1-carbonyl)-1H-pyrazole-3-carboxamide]
< 0.1	CC(C)(O)COc1cccc(CN2CCN(C(=O)n3ccc(C(N)=O)n3)CC2)c1Cl [Example 37, 1-(4-(2-Chloro-3-(2-hydroxy-2-methylpropoxy)benzyl)piperazine-1-carbonyl)-1H-pyrazole-3-carboxamide]
< 0.1	CC(C)(O)COc1cccc(CO[C@H]2C[C@@H]3CN(C(=O)n4ccc(C(=O)O)n4)C[C@@H]3C2)c1Cl [Example 38, 1-(trans-5-((2-Chloro-3-(2-hydroxy-2-methylpropoxy)benzyl)oxy)octahydrocyclopenta[c]pyrrole-2-carbonyl)-1H-pyrazole-3-carboxylic Acid]
< 0.1	O=C(O)c1ccn(C(=O)N2CCN(Cc3ccc(Oc4ccc(Cl)cc4)cc3)CC2)n1 [Example 45, 1-(4-(4-(4-chlorophenoxy)-benzyl)piperazine-1-carbonyl)-1H-pyrazole-3-carboxylic acid]
< 0.1	O=C(O)c1ccn(C(=O)N2CCN(Cc3cccc(Oc4ccc(F)cc4)c3)CC2)n1 [Example 51, 1-(4-(3-(4-fluorophenoxy)-benzyl)piperazine-1-carbonyl)-1H-pyrazole-3-carboxylic acid]
< 0.1	O=C(O)c1ccn(C(=O)N2C[C@H]3C[C@H](OCc4cc(F)cc(Cl)c4)C[C@H]3C2)n1 [Example 53, 1-(trans-5-((3-chloro-5-fluorobenzyl)oxy)-octahydrocyclopenta-[c]pyrrole-2-carbonyl)-1H-pyrazole-3-carboxylic acid]
< 0.1	O=C(O)c1ccn(C(=O)N2CCC3(CCN(Cc4ccc(C(F)(F)F)cc4Cl)C3)CC2)n1 [Example 77, 1-(2-(2-chloro-4-(trifluoromethyl)-benzyl)-2,8-diazaspiro[4.5]-decane-8-carbonyl)-1H-pyrazole-3-carboxylic acid]
< 0.1	O=C(O)c1ccn(C(=O)N2CCN(Cc3ccc(C(F)(F)F)cc3N3CCCC3)CC2)n1 [Example 83, 1-(4-(2-(pyrrolidin-1-yl)-4-(trifluoromethyl)-benzyl)-piperazine-1-carbonyl)-1H-pyrazole-3-carboxylic acid]
< 0.1	O=C(O)c1ccn(C(=O)N2CCN(Cc3ccc(C(F)(F)F)cc3N3CC[C@H](F)C3)CC2)n1 [Example 92, (S)-1-(4-(2-(3-fluoropyrrolidin-1-yl)-4-(trifluoromethyl)-benzyl)-piperazine-1-carbonyl)-1H-pyrazole-3-carboxylic acid]
< 0.1	O=C(O)c1ccn(C(=O)N2CCN(Cc3ccc(C(F)(F)F)cc3N3CCCCC3)CC2)n1 [Example 100, 1-(4-(2-(piperidin-1-yl)-4-(trifluoromethyl)-benzyl)-piperazine-1-carbonyl)-1H-pyrazole-3-carboxylic acid]
< 0.1	Cc1cn(C(=O)N2CCN(Cc3cccc(Oc4ccc(Cl)cc4)c3)CC2)nc1C(=O)O [Example 129, 1-(4-(3-(4-chlorophenoxy)-benzyl)-piperazine-1-carbonyl)-4-methyl-1H-pyrazole-3-carboxylic acid]
< 0.1	Cc1cn(C(=O)N2CCC3(CCN(Cc4cc(Cl)ccc4C(F)(F)F)C3)CC2)nc1C(=O)O [Example 130, 1-(2-(5-chloro-2-(trifluoromethyl)-benzyl)-2,8-diazaspiro[4.5]-decane-8-carbonyl)-4-methyl-1H-pyrazole-3-carboxylic acid]
